Key:
[1] = tested on: MDA-MB-231 (a human triple negative breast cancer cell line); test: In vitro cytotoxicity evaluation, MDA-MB-231; type: cell-based; conditions: MDA-MB-231 cells, average ± SEM of minimum three individual experiments
Description: (§1) […] Cell line MDA-MB-231 (a human triple negative breast cancer cell line) and cell line 4T1 (a metastatic murine breast cancer cell line) were used for testing.

[2] = tested on: 4T1 (a metastatic murine breast cancer cell line); test: In vitro cytotoxicity evaluation, 4T1; type: cell-based; conditions: Mus musculus; 4T1 cells; average ± SEM of minimum three individual experiments
Description: as §1

SMILES: COC(=O)C(O)(CO)COC(=O)c1nn(-c2ccc(N(Cc3ccccc3)Cc3ccccc3)cc2)c2ccccc12 (centres unmarked) [Compound A-4]
- IC50 [1]: 2.33 ± 0.48 µM
- IC50 [2]: 4.9 ± 0.42 µM

SMILES: C=C(COC(=O)c1nn(-c2ccc(N(Cc3ccccc3)Cc3ccccc3)cc2)c2ccccc12)C(=O)OC [Compound A-3]
- IC50 [1]: > 25 µM
- IC50 [2]: > 25 µM

SMILES: C=C(COC(=O)c1nn(-c2ccc(N(Cc3ccc(Cl)cc3)Cc3ccc(Cl)cc3)cc2)c2ccccc12)C(=O)OC [Compound A-5]
- IC50 [1]: > 25 µM
- IC50 [2]: > 25 µM

SMILES: COC(=O)C(O)(CO)COC(=O)c1nn(-c2ccc(N(Cc3ccc(OC)cc3)Cc3ccc(OC)cc3)cc2)c2ccccc12 (centres unmarked) [Compound A-10]
- IC50 [1]: 4.96 ± 1.19 µM
- IC50 [2]: 7.12 ± 1.13 µM

SMILES: COC(=O)C(O)(CO)COC(=O)c1nn(-c2ccc(N(Cc3ccc(F)cc3)Cc3ccc(F)cc3)cc2)c2ccccc12 (centres unmarked) [Compound A-8]
- IC50 [1]: 3.02 ± 0.68 µM
- IC50 [2]: 2.87 ± 0.86 µM

SMILES: COC(=O)C(O)(CO)COC(=O)c1nn(-c2ccc(N(Cc3ccc(Cl)cc3)Cc3ccc(Cl)cc3)cc2)c2ccccc12 (centres unmarked) [Compound A-6]
- IC50 [1]: 4.51 ± 0.95 µM
- IC50 [2]: 4.8 ± 1.01 µM

SMILES: O=C(O)c1nn(-c2ccc(N(Cc3ccccc3)Cc3ccccc3)cc2)c2ccccc12 [Compound A-1]
- IC50 [1]: > 25 µM
- IC50 [2]: > 25 µM

SMILES: C=C(COC(=O)c1nn(-c2ccc(N(Cc3ccc(F)cc3)Cc3ccc(F)cc3)cc2)c2ccccc12)C(=O)OC [Compound A-7]
- IC50 [1]: > 25 µM
- IC50 [2]: 10.8 ± 2.28 µM

SMILES: C=C(COC(=O)c1nn(-c2ccc(N(Cc3ccc(OC)cc3)Cc3ccc(OC)cc3)cc2)c2ccccc12)C(=O)OC [Compound A-9]
- IC50 [1]: > 25 µM
- IC50 [2]: > 25 µM

SMILES: COC(=O)c1nn(-c2ccc(N(Cc3ccccc3)Cc3ccccc3)cc2)c2ccccc12 [Compound A-2]
- IC50 [1]: > 25 µM
- IC50 [2]: > 25 µM

Reference: patent publication US20190040016A1, “INDOLE AND INDAZOLE COMPOUNDS AND THERAPEUTIC USES THEREOF” (REGENTS OF THE UNIVERSITY OF MINNESOTA, priority 2016, published 2019)
